Experimental findings from PubChem BioAssay (NCI) are described below.

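How tested: cells in 96-well plates exposed to compound for 48 hours at five concentrations. At the TGI there is no net growth.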

Test systems include M14 melanoma; EKVX NSCLC; DMS 273 small cell lung; CCRF-CEM leukemia; TK-10 renal; HCT-15 colon; OVCAR-4 ovarian; KM20L2 colon; HCT-116 colon; ACHN renal; RXF 393 renal; SNB-19 CNS; P388/ADR leukemia; A498 renal; NCI-H226 lung; MCF7 breast; NCI/ADR-RES ovarian; SN12K1 renal; NCI-H522 lung; LXFL 529 NSCLC.
Holding throughout (assay): NCI tumour cell line growth inhibition, 48 h

For `CCOC(=O)NC(=O)c1cn(CCSCCOC(=O)NCCCCCCNC(=O)OCCSCCn2cc(C(=O)NC(=O)OCC)c(=O)[nH]c2=O)c(=O)[nH]c1=O`, the TGI in the experiment with M14 melanoma, in the experiment with EKVX NSCLC, in the experiment on DMS 273 small cell lung, in the experiment with CCRF-CEM leukemia, in the experiment on TK-10 renal and in the experiment on HCT-15 colon was > 100 µM throughout. The TGI in the experiment on OVCAR-4 ovarian, in the experiment with KM20L2 colon, with HCT-116 colon, with ACHN renal, in the experiment with RXF 393 renal and with SNB-19 CNS was > 100 µM each time.
As for `O=C(O)CNS(=O)(=O)c1ccc(NC(=O)Nc2ccccc2)cc1`, the TGI in the experiment with P388/ADR leukemia, in the experiment on EKVX NSCLC, with DMS 273 small cell lung, in the experiment with CCRF-CEM leukemia, in the experiment with A498 renal and in the experiment on HCT-15 colon was > 100 µM in each case. Also, the TGI in the experiment on NCI-H226 lung, in the experiment on OVCAR-4 ovarian, with MCF7 breast, with KM20L2 colon, with NCI/ADR-RES ovarian and with SN12K1 renal was > 100 µM throughout. The TGI in the experiment with HCT-116 colon, with RXF 393 renal, in the experiment on SNB-19 CNS and with NCI-H522 lung was > 100 µM each time.
In the case of `Cc1cc(N=Nc2ccc(N=Nc3c(O)c(S(=O)(=O)O)cc4cc(S(=O)(=O)O)ccc34)cc2C)ccc1N=Nc1ccc2cc(S(=O)(=O)O)cc(S(=O)(=O)O)c2c1`, the TGI in the experiment on P388/ADR leukemia, with EKVX NSCLC, in the experiment with DMS 273 small cell lung, in the experiment on CCRF-CEM leukemia, in the experiment with A498 renal and with HCT-15 colon was > 100 µM throughout. The TGI in the experiment on NCI-H226 lung, with OVCAR-4 ovarian, with MCF7 breast, in the experiment on KM20L2 colon, in the experiment on NCI/ADR-RES ovarian and with SN12K1 renal was > 100 µM throughout. The TGI in the experiment with HCT-116 colon, in the experiment with RXF 393 renal, in the experiment on SNB-19 CNS and with NCI-H522 lung was > 100 µM in each case.
In the case of `CCNCCCCNCC`, the TGI in the experiment on P388/ADR leukemia, in the experiment on EKVX NSCLC, in the experiment on DMS 273 small cell lung, in the experiment with CCRF-CEM leukemia, in the experiment on A498 renal and in the experiment on HCT-15 colon was > 3750 µM each time. The TGI with NCI-H226 lung, in the experiment with OVCAR-4 ovarian, in the experiment with MCF7 breast, with KM20L2 colon, in the experiment with NCI/ADR-RES ovarian and with SN12K1 renal was > 3750 µM in each case. Further, the TGI with HCT-116 colon, in the experiment with RXF 393 renal, in the experiment on SNB-19 CNS and in the experiment with NCI-H522 lung was > 3750 µM throughout.
For the compound `COC(=O)NN1C(=O)C(=P(c2ccccc2)(c2ccccc2)c2ccccc2)C(C(=O)OC)=C1C`, the TGI in the experiment on M14 melanoma, in the experiment on EKVX NSCLC, with DMS 273 small cell lung, in the experiment on CCRF-CEM leukemia, in the experiment on TK-10 renal and in the experiment with A498 renal was > 100 µM each time. In addition, the TGI in the experiment with HCT-15 colon, in the experiment on NCI-H226 lung, in the experiment on KM20L2 colon, in the experiment with ACHN renal, with SNB-19 CNS and in the experiment with NCI-H522 lung was > 100 µM in each case. The TGI in the experiment on LXFL 529 NSCLC is > 100 µM.
For the compound `CC1=C2C(O)C(C(C)C(=O)NC(C)C)CCC2(C)C=CC1=O` (centres undefined), the TGI with P388/ADR leukemia, with EKVX NSCLC, with DMS 273 small cell lung, with CCRF-CEM leukemia, with A498 renal and with HCT-15 colon was > 100 µM each time. Further, the TGI in the experiment on NCI-H226 lung, in the experiment with OVCAR-4 ovarian, in the experiment on MCF7 breast, in the experiment with KM20L2 colon, with NCI/ADR-RES ovarian and in the experiment with SN12K1 renal was > 100 µM throughout. Also, the TGI with HCT-116 colon, in the experiment with RXF 393 renal, in the experiment on SNB-19 CNS and in the experiment with NCI-H522 lung was > 100 µM throughout.
With `CC(C)(O)[C@H](CCO)O[Si](c1ccccc1)(c1ccccc1)C(C)(C)C`, the TGI in the experiment with M14 melanoma came to 25.8 µM; in the experiment on EKVX NSCLC, 29.6 µM; in the experiment with DMS 273 small cell lung, 24.2 µM; in the experiment with CCRF-CEM leukemia, 32.2 µM; in the experiment with TK-10 renal, 25.9 µM; in the experiment on A498 renal, 30.9 µM. For the same compound, the TGI was determined as 20.7 µM in the experiment on HCT-15 colon; 23.9 µM in the experiment with KM20L2 colon; 17.6 µM in the experiment with HCT-116 colon; 19.7 µM in the experiment on ACHN renal; 19.5 µM in the experiment on SNB-19 CNS; 20.1 µM in the experiment with NCI-H522 lung. The same compound showed a TGI with LXFL 529 NSCLC of 23.8 µM.
Take `CC1OC(OC2CC(O)(C(=O)CO)Cc3c(O)c4c(c(O)c32)C(=O)c2ccccc2C4=O)CC(N)C1O` (centres undefined): the TGI in the experiment with M14 melanoma was 0.229 µM; with EKVX NSCLC it was 1.82 µM; in the experiment with DMS 273 small cell lung, < 0.0278 µM; with A498 renal, 0.0526 µM; in the experiment on HCT-15 colon it was 1.99 µM; in the experiment with NCI-H226 lung, < 0.0228 µM. Besides, the TGI with OVCAR-4 ovarian was determined as 3.15 µM; in the experiment on KM20L2 colon it was 0.779 µM; with HCT-116 colon it was 0.407 µM; in the experiment on ACHN renal, 0.134 µM; in the experiment with RXF 393 renal, 0.152 µM; in the experiment with SNB-19 CNS, 0.239 µM. The TGI came out at 0.1 µM with NCI-H522 lung and 0.347 µM in the experiment with LXFL 529 NSCLC.
For `Cn1c(=O)c2nc(N3CCCCC3)cnc2n(C)c1=O`, the TGI in the experiment on M14 melanoma, in the experiment on EKVX NSCLC, in the experiment with CCRF-CEM leukemia, in the experiment on TK-10 renal, with A498 renal and in the experiment on HCT-15 colon was > 100 µM each time. Also, the TGI in the experiment with OVCAR-4 ovarian, in the experiment on KM20L2 colon, in the experiment with HCT-116 colon, in the experiment with ACHN renal, in the experiment on SNB-19 CNS and with NCI-H522 lung was > 100 µM each time. Also, the TGI in the experiment on LXFL 529 NSCLC was > 100 µM.
